Article PMC8400120, “Synthesis of Novel Methyl 7-[(Hetero)arylamino]thieno[2,3-b]pyrazine-6-carboxylates and Antitumor Activity Evaluation: Effects in Human Tumor Cells Growth, Cell Cycle Analysis, Apoptosis and Toxicity in Non-Tumor Cells” (Molecules, 2021)

How the values were obtained:
[1] = test system: non-small-cell lung carcinoma (NCI-H460); assay: SRB cell growth inhibition assay, NCI-H460; assay type: cell-based, human; conditions: Homo sapiens, NCI-H460, 48 h, 48 h incubation, mean ± SD
Description: (§1) The antitumor potential of the di(hetero)arylamines 2a–2o was evaluated using the sulforhodamine B (SRB) assay to establish some structure–activity relationships. Four human tumor cell lines (acquired from Leibniz-Institut DSMZ) were used: gastric adenocarcinoma (AGS), colorectal adenocarcinoma (CaCo-2), breast adenocarcinoma (MCF7), and non-small-cell lung cancer (NCI-H460), as well as a non-tumor cell line from African green monkey kidney (Vero) to evaluate the toxicity of the compounds. Ellipticine was used as a positive control, and the results are presented in GI50 values (µM) (Table 2).
(§2) Each cell line was prepared in 96-well plates, at the required density (1.0 × 10^4 cells/well) and incubated for 24 h to achieve cell attachment. The solutions of the compounds were applied and incubated for another 48 h. GI50 values (µM) corresponding to the compound concentration that inhibited 50% of cell growth were determined using the sulforhodamine B assay. Two separate tests were carried out for each compound, in duplicate, with the effects expressed as mean values and standard deviation (SD). Ellipticine was used as a positive control.

breast carcinoma (MCF7) = assay: SRB cell growth inhibition assay, MCF7; assay type: cell-based, human; conditions: Homo sapiens, MCF7, 48 h, MCF-7, SRB assay, 48 h incubation, mean ± SD
Description: as §1, §2

[2] = test system: colorectal adenocarcinoma (CaCo-2); assay: SRB cell growth inhibition assay, CaCo-2; assay type: cell-based, human; conditions: CaCo-2, SRB assay, 48 h incubation, mean ± SD
Description: as §1, §2

[3] = SRB cell growth inhibition assay, non-tumor Vero cells (toxicity); assay type: cell-based; conditions: African green monkey, Vero cells (non-tumor kidney cell line), 48 h incubation, mean ± SD
Description: as §1, §2

[4] = test system: gastric adenocarcinoma (AGS); assay: SRB cell growth inhibition assay, AGS; assay type: cell-based, human; conditions: for GI50: AGS, SRB assay, 48 h incubation, mean ± SD
Description: as §1, §2

AGS cells [5] = assay: Flow cytometric apoptosis detection (FITC Annexin V/PI); assay type: cell-based, human; conditions: at GI50 concentration, 72 h; for Cell death in apoptosis assay: vs blank
Description: Apoptosis induction was performed using the Fluorescein Isothiocyanate (FITC) Annexin V Apoptosis Kit (BD Biosciences, San Jose, CA, USA), and measured by flow cytometry for compounds 2b, 2f, and 2g (Figure 3). FITC Annexin V staining was used to determine the percentage of cells within a population that are actively undergoing apoptosis. […] Apoptosis detection was performed using the Fluorescein Isothiocyanate (FITC) Annexin V Apoptosis Kit (BD Biosciences, San Jose, CA, USA) and flow cytometry. FITC Annexin V staining is used to determine the percentage of cells within a population that are actively undergoing apoptosis. The cells were washed twice with PBS and resuspended cells in 1× Binding Buffer (10 mM HEPES/NaOH, pH 7.4, 140 mM NaCl, 2.5 mM CaCl2) at a concentration of 1 × 10^6 cells/mL. Following this, 100 μL of the solution (1 × 10^5 cells) was transferred to a 5 mL culture tube and 5 μL of FITC Annexin V (BD Biosciences, San Jose, CA, USA) and 5 μL of PI (BD Biosciences, San Jose, CA, USA) were added to each tube, and they were incubated in the dark, at room temperature, for 15 min. Finally, 400 μL of 1× Binding Buffer was added to each tube. Next, 30,000 cells were acquired using an Accuri C6 flow cytometer (BD Biosciences, San Jose, CA, USA), and the percentage of cell distribution was evaluated with Accuri C6 software (BD Biosciences, San Jose, CA, USA). Ellipticine was used as a positive control at its GI50 concentration for AGS cell line.

AGS cells [6] = assay: Flow cytometric cell cycle analysis (PI staining); assay type: cell-based, human; conditions: at GI50 concentration, 72 h, vs blank
Description: This assay is based on the measurement of the DNA content in the PI-labeled nuclei. […] Cell cycle analysis was performed using propidium iodide (PI) staining and flow cytometry. This assay is established on the measurement of the DNA content of nuclei labeled with PI. Following this, the cells were staining according to the protocol PI/RNASE Solution (Immunostep, Spain, Salamanca). The harvested cells corresponding to 2 × 10^5 to 1 × 10^6 cells, were centrifuged for 5 min at 300g, and the supernatant was removed. The cells were fixed and added to 200 µL of 70% ethanol and left in the ethanol at 4 °C for 30 min. Following this, the cells were washed once in 2 mL phosphate-buffered saline (PBS) and centrifuged for 5 min at 300g and resuspended in 500 μL of PI solution (PI/RNASE) and incubated in the dark, at room temperature, for 15 min. Cell cycle phase distribution was evaluated using an Accuri C6 flow cytometer (BD Biosciences, San Jose, CA, USA). The DNA content of at least 20,000 cells was counted per sample, and the percentage of cells in different phases (G0/G1, S, and G2/M phases) of the cell cycle was evaluated using BD Accuri C6 software (BD Biosciences, San Jose, CA, USA). Ellipticine was used as a positive control at its GI50 concentration for AGS cell line.

SMILES | GI50 [1] [µM] | GI50 (breast carcinoma (MCF7)) [µM] | GI50 ([2]; Homo sapiens, Caco-2, 48 h) [µM] | GI50 at 48 h [3] [µM] | melting point [°C] | GI50 ([4]; Homo sapiens, 48 h) [µM] | High number of cells in apoptosis (expected from GI50 values) (AGS cells [5]) | Apoptotic cells (AGS cells [5]; Figure 4) | Dead cells (AGS cells [5]; Figure 4) | Live Cells (AGS cells [5]; Figure 4) | Cell death in apoptosis assay (AGS cells [5]) | AGS cell cycle profile histogram (AGS cells [6]) | Selectivity for AGS among the cell lines used ([4]; comparison of GI50 values) | GI50 [2] [µM] | Effect on G0/G1 phases of AGS cell cycle (AGS cells [6]) | Effect on G2/M phase of AGS cell cycle (AGS cells [6]) | GI50 [4] [µM]
COC(=O)c1sc2nccnc2c1Nc1ccccc1[N+](=O)[O-] [2o, Methyl 7-[(2-Nitrophenyl)amino]thieno[2,3-b]pyrazine-6-carboxylate] | 43 ± 2 | 103 ± 3 | 31.2 ± 0.2 | 92 ± 8 | 225 to 227 | 55 ± 0.3 |  |  |  |  |  |  |  |  |  |  | 
COC(=O)c1sc2nccnc2c1Nc1ccc(OC)cc1 [2d, Methyl 7-[(4-Methoxyphenyl)amino]thieno[2,3-b]pyrazine-6-carboxylate] | 52.8 ± 0.3 | 136 ± 3 | 60 ± 2 | 127 ± 3 |  | 59 ± 3 |  |  |  |  |  |  |  |  |  |  | 
COC(=O)c1sc2nccnc2c1Nc1ccccc1F [2i, Methyl 7-[(2-Fluorophenyl)amino]thieno[2,3-b]pyrazine-6-carboxylate] | 76 ± 1 | 128 ± 5 | 88.4 ± 0.2 | 117 ± 10 |  | 48 ± 4 |  |  |  |  |  |  |  |  |  |  | 
COC(=O)c1sc2nccnc2c1Nc1cc(OC)cc(OC)c1 [2g, Methyl 7-[(3,5-Dimethoxyphenyl)amino]thieno[2,3-b]pyrazine-6-carboxylate] | 120 ± 10 | 182 ± 5 | 38 ± 4 | 144 ± 10 |  | 7.8 ± 0.2 | not verified | 19,6% | 60,4% | 19,0% | large amount of cell death | high percentage of cell death and an atypical distribution on cell cycle profile | selective for this cell line |  |  |  | 
COC(=O)c1sc2nccnc2c1Nc1ccc(F)cc1 [2k, Methyl 7-[(4-Fluorophenyl)amino]thieno[2,3-b]pyrazine-6-carboxylate] | 84 ± 2 | 160 ± 7 | 62 ± 4 | 149 ± 7 | 171 to 173 | 118 ± 2 |  |  |  |  |  |  |  |  |  |  | 
COC(=O)c1sc2nccnc2c1Nc1cccc(OC)c1 [2c, Methyl 7-[(3-Methoxyphenyl)amino]thieno[2,3-b]pyrazine-6-carboxylate] | 96 ± 1 | 160 ± 6 | 56 ± 1 | 94 ± 3 | 171 to 173 | 98 ± 3 |  |  |  |  |  |  |  |  |  |  | 
COC(=O)c1sc2nccnc2c1Nc1ccc(OC)cc1OC [2e, Methyl 7-[(2,4-Dimethoxyphenyl)amino]thieno[2,3-b]pyrazine-6-carboxylate] | 200 ± 3 | 140 ± 7 | 56 ± 2 | 138 ± 8 | 159 to 161 | 34 ± 2 |  |  |  |  |  |  |  |  |  |  | 
COC(=O)c1sc2nccnc2c1Nc1ccc(OC)c(OC)c1 [2f, Methyl 7-[(3,4-Dimethoxyphenyl)amino]thieno[2,3-b]pyrazine-6-carboxylate] | 41 ± 3 | 87 ± 1 | < 10 | 53 ± 3 |  | < 10 | not verified |  |  |  | moderated cell death compared to the blank |  |  | 8 ± 1 | cell cycle arrest in G0/G1 phases, although this result was not statistically significant | did not present any difference in the percentage of cells compared to the blank | 9.2 ± 0.2
